Earlier results, collected in US20220323439A1, “URACIL DERMAL PHARMACEUTICAL FORMULATION” (NANOMETICS LLC (D.B.A PHD BIOSCIENCES), priority 2019, published 2022).

Details: oral uracil 500 mg/m^2

Cmax of uracil after oral administration: 20000 ng/mL
Compound: O=c1cc[nH]c(=O)[nH]1 [uracil, Uracil]
